A value given as a limit tells only on which side of the number the result lay.

The record followed here is ChEMBL document CHEMBL3272010, “Antimycotic imidazoles. 3. Synthesis and antimycotic properties of 1-[2-(aryloxyalkyl)-2-phenylethyl]-1H-imidazoles” (1977).

What all share (format): functional
The subject of one experiment is Microsporum canis. Briefly: Antifungal activity against Microsporum canis assessed as lowest dose required to total inhibition of fungal growth.
Experiment [1] concerns Trichophyton mentagrophytes. Briefly: Antifungal activity against Trichophyton mentagrophytes assessed as lowest dose required to total inhibition of fungal growth.
The test system of another experiment is Trichophyton rubrum. Briefly: Antifungal activity against Trichophyton rubrum assessed as lowest dose required to total inhibition of fungal growth.
For the next experiment, the system named is Cryptococcus neoformans. Nature of the experiment: Antifungal activity against Cryptococcus neoformans assessed as lowest dose required to total inhibition of fungal growth.
Another experiment has as its system Candida tropicalis. Nature of the experiment: Antifungal activity against Candida tropicalis assessed as lowest dose required to total inhibition of fungal growth.
Another experiment deals with Candida albicans. Nature of the experiment: Antifungal activity against Candida albicans assessed as lowest dose required to total inhibition of fungal growth.
The next experiment has as its system Mucor. Briefly: Antifungal activity against Mucor species assessed as lowest dose required to total inhibition of fungal growth.
For a further experiment, the system named is Aspergillus fumigatus. Nature of the experiment: Antifungal activity against Aspergillus fumigatus assessed as lowest dose required to total inhibition of fungal growth.
Another experiment concerns Sporothrix schenckii. Nature of the experiment: Antifungal activity against Sporothrix schenckii assessed as lowest dose required to total inhibition of fungal growth.
The next experiment relates to Saprolegnia. Briefly: Antifungal activity against Saprolegnia species assessed as lowest dose required to total inhibition of fungal growth.
Another experiment concerns Phialophora verrucosa. Nature of the experiment: Antifungal activity against Phialophora verrucosa assessed as lowest dose required to total inhibition of fungal growth.
Experiment [2] concerns Erysipelothrix rhusiopathiae. Nature of the experiment: Antibaterial activity against Erysipelothrix insidiosa assessed as lowest dose required to total inhibition of bacterial growth.
For experiment [3], the system named is Staphylococcus haemolyticus. Nature of the experiment: Antibaterial activity against Staphylococcus haemolyticus assessed as lowest dose required to total inhibition of bacterial growth.
The test system of the next experiment is Streptococcus pyogenes. Nature of the experiment: Antibaterial activity against Streptococcus pyogenes assessed as lowest dose required to total inhibition of bacterial growth.

With `Clc1ccc(C(CCCOc2ccccc2)Cn2ccnc2)c(Cl)c1.O=C(O)C(=O)O` (stereo not given), the GI is 10 µg/mL in the experiment with Microsporum canis; under 1 µg/mL in [1]; under 1 µg/mL with Trichophyton rubrum; under 1 µg/mL in the experiment on Cryptococcus neoformans; over 100 µg/mL in the experiment with Candida tropicalis; over 100 µg/mL in the experiment on Candida albicans. For the same compound, the GI is over 100 µg/mL in the experiment on Mucor; 10 µg/mL in the experiment on Aspergillus fumigatus; under 1 µg/mL in the experiment with Sporothrix schenckii; 10 µg/mL in the experiment with Saprolegnia; 10 µg/mL with Phialophora verrucosa; under 1 µg/mL in experiment [2]. The GI was 10 µg/mL in experiment [3] and under 1 µg/mL in the experiment with Streptococcus pyogenes.

`Clc1ccc(OCC(Cn2ccnc2)c2ccc(Cl)cc2Cl)cc1.O=[N+]([O-])O` (stereo not given): the GI in the experiment on Microsporum canis is 10 µg/mL; in experiment [1], under 1 µg/mL; in the experiment on Trichophyton rubrum, under 1 µg/mL; in the experiment on Cryptococcus neoformans it was under 1 µg/mL; in the experiment with Candida tropicalis it was over 100 µg/mL; in the experiment on Candida albicans, 10 µg/mL. Further, the GI was 100 µg/mL with Mucor; 10 µg/mL in the experiment on Aspergillus fumigatus; 10 µg/mL with Sporothrix schenckii; 100 µg/mL in the experiment with Saprolegnia; 10 µg/mL in the experiment on Phialophora verrucosa; under 1 µg/mL in experiment [2]. Moreover, the GI in experiment [3] is 10 µg/mL; with Streptococcus pyogenes it was under 1 µg/mL.

For the compound `Clc1ccc(C(COc2ccc(Cl)cc2Cl)Cn2ccnc2)cc1.O=[N+]([O-])O` (stereo not given), the GI was 10 µg/mL with Microsporum canis; under 1 µg/mL in experiment [1]; under 1 µg/mL with Trichophyton rubrum; under 1 µg/mL in the experiment with Cryptococcus neoformans; over 100 µg/mL in the experiment with Candida tropicalis; 10 µg/mL with Candida albicans. The GI was over 100 µg/mL in the experiment with Mucor; 100 µg/mL in the experiment on Aspergillus fumigatus; 10 µg/mL in the experiment on Sporothrix schenckii; over 100 µg/mL with Saprolegnia; 100 µg/mL in the experiment on Phialophora verrucosa; 1 µg/mL in experiment [2]. Further, the GI was 10 µg/mL in experiment [3] and under 1 µg/mL with Streptococcus pyogenes.

For the compound `COc1ccc(OCCCC(Cn2ccnc2)c2ccc(Cl)cc2Cl)cc1.O=C(O)C(=O)O` (stereo not given), the GI with Microsporum canis was 10 µg/mL; in experiment [1] it was under 1 µg/mL; in the experiment on Trichophyton rubrum it was under 1 µg/mL; in the experiment with Cryptococcus neoformans, under 1 µg/mL; in the experiment with Candida tropicalis, over 100 µg/mL; with Candida albicans, 10 µg/mL. The GI in the experiment on Mucor is 100 µg/mL; in the experiment on Aspergillus fumigatus, 10 µg/mL; in the experiment on Sporothrix schenckii, under 1 µg/mL; in the experiment on Saprolegnia, under 1 µg/mL; with Phialophora verrucosa, 10 µg/mL; in [2], under 1 µg/mL. The values for the GI (in [3]; with Streptococcus pyogenes) were 100 µg/mL and under 1 µg/mL, respectively.

As for `Fc1ccc(OCCCC(Cn2ccnc2)c2ccc(Cl)cc2Cl)cc1.O=C(O)C(=O)O` (stereo not given), the GI is under 1 µg/mL in the experiment on Microsporum canis; under 1 µg/mL in experiment [1]; under 1 µg/mL in the experiment on Trichophyton rubrum; under 1 µg/mL with Cryptococcus neoformans; over 100 µg/mL with Candida tropicalis; over 100 µg/mL with Candida albicans. Moreover, the GI is over 100 µg/mL with Mucor; 100 µg/mL with Aspergillus fumigatus; under 1 µg/mL in the experiment with Sporothrix schenckii; 10 µg/mL in the experiment with Saprolegnia; 100 µg/mL with Phialophora verrucosa; 1 µg/mL in experiment [2]. In addition, the GI in experiment [3] was found to be 10 µg/mL; in the experiment on Streptococcus pyogenes, 1 µg/mL.

For the compound `Clc1ccc(C(CCCOc2ccccc2Br)Cn2ccnc2)c(Cl)c1.O=C(O)C(=O)O` (stereo not given), the GI with Microsporum canis was under 1 µg/mL; in experiment [1] it was under 1 µg/mL; in the experiment with Trichophyton rubrum, under 1 µg/mL; in the experiment with Cryptococcus neoformans, under 1 µg/mL; with Candida tropicalis, over 100 µg/mL; in the experiment on Candida albicans, 100 µg/mL. The GI in the experiment with Mucor is over 100 µg/mL; with Aspergillus fumigatus, 100 µg/mL; with Sporothrix schenckii, 10 µg/mL; in the experiment with Saprolegnia it was 100 µg/mL; in the experiment on Phialophora verrucosa, 100 µg/mL; in experiment [2], under 1 µg/mL. The GI was 10 µg/mL in [3] and under 1 µg/mL in the experiment with Streptococcus pyogenes.

As to `Clc1ccc(C(CCOc2ccccc2Br)Cn2ccnc2)c(Cl)c1.O=C(O)C(=O)O` (stereo not given), the GI in the experiment with Microsporum canis was 100 µg/mL; in experiment [1] it was under 1 µg/mL; in the experiment on Trichophyton rubrum, under 1 µg/mL; in the experiment on Cryptococcus neoformans, under 1 µg/mL; in the experiment with Candida tropicalis it was over 100 µg/mL; with Candida albicans, over 100 µg/mL. The GI in the experiment with Mucor was over 100 µg/mL; with Aspergillus fumigatus it was over 100 µg/mL; in the experiment on Sporothrix schenckii, 10 µg/mL; with Saprolegnia it was 100 µg/mL; with Phialophora verrucosa it was 100 µg/mL; in experiment [2] it was under 1 µg/mL. For the same compound, the GI is 10 µg/mL in [3] and under 1 µg/mL in the experiment on Streptococcus pyogenes.

`Clc1ccc(COC(Cn2ccnc2)c2ccc(Cl)cc2Cl)c(Cl)c1` (stereo not given) [MICONAZOLE]: the GI was 1 µg/mL in the experiment with Microsporum canis; under 1 µg/mL in experiment [1]; under 1 µg/mL in the experiment on Trichophyton rubrum; 1 µg/mL in the experiment with Cryptococcus neoformans; 100 µg/mL in the experiment with Candida tropicalis; 10 µg/mL with Candida albicans. The GI in the experiment with Mucor is over 100 µg/mL; in the experiment on Aspergillus fumigatus it was 10 µg/mL; in the experiment with Sporothrix schenckii, 1 µg/mL; with Saprolegnia, 10 µg/mL; in the experiment on Phialophora verrucosa, 100 µg/mL; in experiment [2], under 1 µg/mL. Further, the GI in experiment [3] is 10 µg/mL; in the experiment with Streptococcus pyogenes, under 1 µg/mL.

Turning to `Clc1ccc(C(COc2ccc(Br)cc2)Cn2ccnc2)c(Cl)c1.O=[N+]([O-])O` (stereo not given), the GI in the experiment with Microsporum canis was under 1 µg/mL; in [1] it was under 1 µg/mL; in the experiment with Trichophyton rubrum, under 1 µg/mL; in the experiment on Cryptococcus neoformans, under 1 µg/mL; with Candida tropicalis it was over 100 µg/mL; in the experiment on Candida albicans, 100 µg/mL. For the same compound, the GI in the experiment with Mucor is 100 µg/mL; with Aspergillus fumigatus, 100 µg/mL; with Sporothrix schenckii, 100 µg/mL; in the experiment with Saprolegnia it was 100 µg/mL; with Phialophora verrucosa it was 100 µg/mL; in experiment [2], under 1 µg/mL. Besides, the GI is 10 µg/mL in experiment [3] and under 1 µg/mL in the experiment on Streptococcus pyogenes.

Take `COc1ccc(OCCC(Cn2ccnc2)c2ccc(Cl)cc2Cl)cc1.O=[N+]([O-])O` (stereo not given): the GI with Microsporum canis was 10 µg/mL; in [1] it was under 1 µg/mL; in the experiment on Trichophyton rubrum, under 1 µg/mL; in the experiment with Cryptococcus neoformans it was under 1 µg/mL; in the experiment with Candida tropicalis, over 100 µg/mL; with Candida albicans it was 100 µg/mL. For the same compound, the GI in the experiment with Mucor is 100 µg/mL; with Aspergillus fumigatus, 100 µg/mL; in the experiment with Sporothrix schenckii, 10 µg/mL; with Saprolegnia, under 1 µg/mL; in the experiment on Phialophora verrucosa, 10 µg/mL; in [2] it was under 1 µg/mL. The figures for the GI (in experiment [3]; in the experiment with Streptococcus pyogenes) were 10 µg/mL and under 1 µg/mL, respectively.
